# Experimental data reported in PMC7401278, “Sortase A-Inhibitory Metabolites from a Marine-Derived Fungus Aspergillus sp” (Marine Drugs, 2020).
# Read-outs that look alike come from different tables or passages of the source.
# Key:
# S. aureus ATCC6538p = assay: Antibacterial activity assay (MIC); format: cell-based; details: Staphylococcus aureus, overnight at 37 °C
# Experimental: (§1) Because SrtA inhibitors are expected to serve as anti-infective agents and inhibit bacterial pathogenesis without affecting cell viability, the minimum inhibitory concentrations (MICs) of these compounds were also measured to exclude the possible effects of test compounds on S. aureus cell adhesion to the eukaryotic cell matrix protein fibronectin owing to the inhibition of cell growth.
# The MICs of test compounds were determined as previously described. S. aureus ATCC6538p (5 mL) was cultured in tryptic soy broth to saturation at 37 °C and diluted to an OD600 of 0.01. The culture was incubated for an additional 2 h and diluted to an OD600 of 0.005. In each well of a 96-well plate, 180 µL of cells was mixed with 20 µL of a concentrated test compound solution in 10% DMSO (final concentration, 1% DMSO). Culture plates were incubated overnight at 37 °C, and the OD600 was measured using a Multiskan Spectrum spectrophotometer (Thermo Labsystems Inc., Beverly, MA, USA). MIC values were defined as the lowest concentration of the test compounds inhibiting cell growth. Ampicillin was used as a positive control.
# [1] = molecular target: T1, recombinant SrtA derived from S. aureus ATCC6538p (Staphylococcus aureus, UniProt Q2FV99); assay: SrtA inhibition assay (fluorescence, cleavage of dabcyl-LPETG-edans); format: biochemical; details: 37 °C, 1 h
# T1 construct: made in house; host or cells: Escherichia coli
# Experimental: Recombinant SrtA derived from S. aureus ATCC6538p was purified from Escherichia coli extracts using metal chelate-affinity chromatography. The enzyme activity was determined from the fluorescence intensity upon cleavage of a peptide substrate containing the LPETG motif. Throughout the separation process, the crude extract and chromatographic fractions containing fungal metabolites of strain F452 inhibited the activity of SrtA. Accordingly, the same bioassay was performed using pure compounds.
# The srtA gene from S. aureus ATCC6538p was expressed and recombinant SrtA was purified as previously described. The SrtA inhibition test was carried out by analyzing the increased fluorescence intensity resulting from the cleavage of synthetic peptide substrate dabcyl-LPETG-edans (AnaSpec, Inc., Fremont, CA, USA) with slight modification. The reaction was carried out with 100 μL buffer (50 mM Tris-HCl, 5 mM CaCl2, and 150 mM NaCl, pH 7.5), 7.5 µM synthetic peptide, 7.5 µM purified SrtA, and test samples at various concentrations. […] The SrtA inhibition assay was conducted at 37 °C for 1 h, and inhibition was quantified fluorometrically using a microplate reader (FLx800, BioTek Instruments, Winooski, VT, USA) at excitation and emission wavelengths of 350 and 495 nm, respectively. pHMB and berberine chloride were used as reference inhibitors of SrtA.
# [2] = Cytotoxicity assay (SRB), A549; format: cell-based; details: human, A549 (lung cancer) cells, A549, 72 h
# Experimental: as §1
# (§2) The effect of compounds (1–8) on cell proliferation was measured by the sulforhodamine B (SRB) cellular protein-staining method. In brief, A549 (lung cancer) and K562 (leukemia) cells (1 × 10^4 cells in 190 μL of complete DMEM) were seeded in 96-well plates with various concentrations of compounds (1–8) and incubated at 37 °C in a humidified atmosphere with 5% CO2. After 72 h of compound (1–8) treatment, the cells were fixed with 10% TCA solution for 1 h, and cellular proteins were stained with a solution of 0.4% SRB in 1% acetic acid. The stained cells were dissolved in 10 mM Tris buffer (pH 10.0). The effect of compounds (1–8) on cell viability was calculated as a percentage relative to a solvent-treated control, and the IC50 values were calculated using a nonlinear regression analysis (percent survival versus concentration). Etoposide was used as a positive control.
# [3] = Cytotoxicity assay (SRB), K562; format: cell-based; details: human, K562 (leukemia) cells, K562, 72 h
# Experimental: as §1, §2
# Colletotrichum acutatum = tested on: Colletotrichum acutatum; design: method as in PMID 26998701; details: cited from earlier work
# SrtA = molecular target: T2, SrtA (Staphylococcus aureus, UniProt Q2FV99); assay: SrtA enzyme kinetics (Lineweaver-Burk, Dixon plot, dialysis); format: biochemical; details: for type of inhibition: Lineweaver and Burk plot, at IC50 or twofold IC50; for binding to SrtA (reversibility): enzyme activity recovered by dialysis within 2 h
# T2 construct: made in house; host or cells: Escherichia coli
# Experimental: To determine the type of inhibition, kinetic studies were performed with compounds 1 and 3 at IC50 or twofold IC50 based on a Lineweaver and Burk plot (Figure 2). Inhibitor constants were obtained by a Dixon plot. […] Moreover, the binding of compounds 1 and 3 to SrtA was reversible because the enzyme activity was indeed recovered by dialysis within 2 h, excluding the possible existence of a covalent bond between inhibitor and enzyme.
# All sortase (SrtA) assays were performed at 37 °C in SrtA enzyme buffer as described above. The inhibitors 1 and 3 were dissolved in DMSO and immediately diluted to the desired working concentration with the same SrtA buffer. The enzymatic inhibition measurements were carried out at different substrate concentrations in the presence and absence of a given concentration of inhibitor, and their kinetics were evaluated by the Lineweaver and Burk plot method. For the dialysis kinetic studies, a solution of enzyme (0.96 mL, 75 μM) and fixed inhibitor concentration (0.04 mL) was prepared and dialyzed against 100 mL buffer at 37 °C for 2 h using regenerated cellulose dialysis membranes SPECTRAPOR® (Rancho Dominguez, CA, USA). Aliquots of 100 μL of the enzyme-inhibitor mixture were taken in time intervals of 0, 30, 60, 90, and 120 min and added to 0.020 mL of substrate (7.5 μM), and after an hour of incubation the enzyme activity was measured. A control solution prepared with enzyme and buffer (SrtA buffer, 100 μL; SrtA, 7.5 μM) was treated similarly.
# Bacillus subtilis = tested on: Bacillus subtilis; design: method as in PMID 26363876; details: cited from earlier work
# PC-12 cells = tested on: PC-12 cells; design: method as in PMID 14698172; details: cited from earlier work
# [4] = tested on: S. aureus strain Newman (wild-type) adhesion to fibronectin; assay: Fibronectin-binding assay; format: cell-based, Staphylococcus aureus
# Text: An active SrtA enzyme is required for the attachment of S. aureus to eukaryotic cell matrix proteins, such as fibronectin and fibrinogen, thus accelerating bacterial adhesion to host tissues and subsequent invasion. The srtA^− mutant strain cannot bind these proteins. Thus, SrtA inhibitors should inhibit SrtA activity in vivo and in turn reduce fibronectin-binding protein surface display. Initially, the SrtA-mediated fibronectin-binding capacities of S. aureus strain Newman (wild-type) and its isogenic srtA knockout mutant (srtA^−) to fibronectin were evaluated. […] Based on SrtA inhibition intensity, compound 1 was selected. The results of the inhibition of S. aureus adhesion to fibronectin via fibronectin-binding protein by compound 1 are shown in Figure 3b.
# S. aureus strains used were Newman (wild-type) and the isogenic srtA knockout mutant (srtA^−). These strains were cultured in tryptic soy broth at 37 °C at 200 rpm up to mid-log phase (OD600 = 0.5). The fibronectin-binding assay was performed as described previously. Cells were treated with test compounds at their indicated concentrations. Every 30 min for 2.5 h, a 0.65 mL cell suspension was centrifuged at 10,000× g for 10 min, and the supernatant was eliminated. […] Plates were dried overnight and absorbance was measured at 560 nm using a microplate reader.
# [5] = tested on: human prostate cancer cell line PC3; design: method as in PMID 26363876; details: cited from earlier work
# [6] = SrtA IC50, recombinant SrtA, value in parentheses
# T2 sequence (Q2FV99 whole entry): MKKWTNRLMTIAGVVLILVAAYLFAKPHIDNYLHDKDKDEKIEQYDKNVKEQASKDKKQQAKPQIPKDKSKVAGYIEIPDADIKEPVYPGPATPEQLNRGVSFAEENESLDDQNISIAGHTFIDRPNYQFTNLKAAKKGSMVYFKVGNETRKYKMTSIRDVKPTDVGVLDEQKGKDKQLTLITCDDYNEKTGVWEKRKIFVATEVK
# T1 sequence (Q2FV99 whole entry): as above
smiles,measurement,setting,value
"CCC(C)C1NC(=O)C(C(C)C)n2c1nc1ccc(OC)cc1c2=O (stereo not drawn) [Compound 2, versicomide A]",MIC,S. aureus ATCC6538p,> 373 µM
same,MIC,S. aureus ATCC6538p; value in parentheses,> 128 µg/mL
same,IC50,"[1]; SrtA IC50, recombinant SrtA",269 ± 3.9 µM
same,IC50,[1]; [6],269.3 ± 1.4 µM
same,IC50 at 72 h,[2],13 to 50 µM
same,IC50 at 72 h,[3],13 to 50 µM
"CCC(C)C1NC(=O)C(C(C)C)n2c1nc1c(c2=O)C=C(OC)C=CO1 (stereo not drawn) [Compound 3, versicoloid A]",MIC,S. aureus ATCC6538p,> 356 µM
same,MIC,S. aureus ATCC6538p; value in parentheses,> 128 µg/mL
same,IC50,"[1]; SrtA IC50, recombinant SrtA",193 ± 2.5 µM
same,IC50,[1]; [6],193.4 ± 0.899 µM
same,IC50 at 72 h,[2],13 to 50 µM
same,minimum inhibitory concentration (MIC),Colletotrichum acutatum,1.6 µg/mL
same,Ki,SrtA,83 µM
same,type of inhibition,SrtA,uncompetitive inhibitor
same,binding to SrtA (reversibility),SrtA,reversible
same,IC50 at 72 h,[3],13 to 50 µM
"CC(C)C1C(=O)N2c3ccccc3C3(O)CC(n4cnc5ccccc5c4=O)C(=O)N1C23 (stereo not drawn) [Compound 6, isochaetominine C]",MIC,S. aureus ATCC6538p,> 297 µM
same,MIC,S. aureus ATCC6538p; value in parentheses,> 128 µg/mL
same,IC50,"[1]; SrtA IC50, recombinant SrtA",216 ± 2.5 µM
same,IC50,[1]; [6],216.3 ± 1.1 µM
same,IC50 at 72 h,[2],13 to 50 µM
same,inhibition against Bacillus subtilis,Bacillus subtilis,weak inhibition
same,IC50 at 72 h,[3],13 to 50 µM
"CC1CCC2C(C=CC(C)(O)C2(C)C(=O)CCO)C1 (stereo not drawn) [Compound 1, aspermytin A]",MIC,S. aureus ATCC6538p,> 480 µM
same,MIC,S. aureus ATCC6538p; value in parentheses,> 128 µg/mL
same,IC50,"[1]; SrtA IC50, recombinant SrtA",146 ± 2.3 µM
same,IC50,[1]; [6],146 ± 0.6 µM
same,IC50 at 72 h,[2],> 100 µM
same,neurotrophic effects,PC-12 cells,significant neurotrophic effects
same,onset and magnitude of inhibition of Newman strain adhesion to fibronectin,[4]; 4× the SrtA IC50 value,comparable to the behavior of the untreated srtA knockout mutant
same,bacterial adherence to fibronectin-coated surfaces,"[4]; strain Newman, 0-, 1-, 2-, or 4-fold the SrtA IC50",significantly reduced
same,Ki,SrtA,265 µM
same,type of inhibition,SrtA,mixed inhibitor
same,binding to SrtA (reversibility),SrtA,reversible
same,IC50 at 72 h,[3],> 100 µM
"CC12NC(=O)C(Cc3c1[nH]c1ccccc31)n1c2nc2ccccc2c1=O (stereo not drawn) [Compound 8, fumiquinazoline K]",MIC,S. aureus ATCC6538p,> 359 µM
same,MIC,S. aureus ATCC6538p; value in parentheses,> 128 µg/mL
same,IC50,"[1]; read-out: SrtA IC50, recombinant SrtA",235 ± 2.6 µM
same,IC50,"[1]; read-out: SrtA IC50, recombinant SrtA, value in parentheses",235.1 ± 0.9 µM
same,IC50 at 72 h,[2],> 100 µM
same,IC50 at 72 h,[3],> 100 µM
"COc1cc([C@@H]2c3cc4c(cc3[C@@H](O[C@@H]3O[C@@H]5CO[C@@H](C)O[C@H]5[C@H](O)[C@H]3O)[C@H]3COC(=O)[C@H]23)OCO4)cc(OC)c1O [etoposide, reference compound]",IC50 at 72 h,[2],0.5 µM
same,IC50 at 72 h,[3],0.5 µM
"CCC1C(=O)N2c3ccccc3C3(O)CC(n4cnc5ccccc5c4=O)C(=O)N1C23 (stereo not drawn) [Compound 5, isochaetominine B]",MIC,S. aureus ATCC6538p,> 307 µM
same,MIC,S. aureus ATCC6538p; value in parentheses,> 128 µg/mL
same,IC50,"[1]; SrtA IC50, recombinant SrtA",232 ± 3.7 µM
same,IC50,[1]; [6],232.4 ± 1.4 µM
same,IC50 at 72 h,[2],13 to 50 µM
same,IC50 at 72 h,[3],13 to 50 µM
"COc1ccc2cc3[n+](cc2c1OC)CCc1cc2c(cc1-3)OCO2 [Berberine chloride, berberine chloride, reference compound]",MIC,S. aureus ATCC6538p,> 332 µM
same,MIC,S. aureus ATCC6538p; value in parentheses,> 128 µg/mL
same,IC50,"[1]; SrtA IC50, recombinant SrtA",85.9 ± 1.2 µM
same,IC50,[1]; [6],94.8 µM
"O=C(O)c1cc[c]([Hg][OH])cc1 [pHMB, para-hydroxymercuribenzoic acid, reference compound]",IC50,"[1]; recombinant SrtA, read-out: SrtA IC50",112 ± 1.7 µM
same,SrtA IC50,"[1]; recombinant SrtA, value in parentheses",33.1 ± 0.5 µg/mL
"CC(C)C1C(=O)N2c3ccccc3C3(O)CC(n4cnc5ccccc5c4=O)C(=O)N1C23 (stereo not drawn) [Compound 7, 14-epi-isochaetominine C]",cytotoxic activity,[5],weak cytotoxic activity
same,IC50,"[1]; SrtA IC50, recombinant SrtA",237 ± 3.8 µM
same,IC50,[1]; [6],237.2 ± 1.2 µM
"CC1(C)S[C@@H]2[C@H](NC(=O)[C@H](N)c3ccccc3)C(=O)N2[C@H]1C(=O)O [Ampicillin, reference compound]",MIC,S. aureus ATCC6538p,0.4 µM
same,MIC,S. aureus ATCC6538p; value in parentheses,0.1 µg/mL
"CC1C(=O)N2c3ccccc3C3(O)CC(n4cnc5ccccc5c4=O)C(=O)N1C23 (stereo not drawn) [Compound 4, isochaetominine A]",MIC,S. aureus ATCC6538p,> 318 µM
same,MIC,S. aureus ATCC6538p; value in parentheses,> 128 µg/mL
same,IC50,"[1]; SrtA IC50, recombinant SrtA",268 ± 4.1 µM
same,IC50,[1]; [6],267.9 ± 1.5 µM
same,IC50 at 72 h,[2],13 to 50 µM
same,IC50 at 72 h,[3],13 to 50 µM
